{"source": "paper PMC3905170", "about": "“Synthesis and structure evaluation of new complex butylarylpiperazin-1-yl derivatives” (Medicinal Chemistry Research, 2013)", "key": {"[1]": {"system": "MT-4 cells", "experiment": "Cytotoxicity assay in MT-4 cells (MTT method)", "assay_type": "cell-based, human", "description": "(§1) Cell line and viruses were purchased from the American Type Culture Collection (ATCC). The absence of mycoplasma contamination was checked periodically by the Hoechst staining method. Cell line supporting the multiplication of human immunodeficiency virus type-1 (HIV-1) was the CD4+ human T-cells containing an integrated HTLV-1 genome (MT-4). Cytotoxicity assays were run in parallel with antiviral assays. Exponentially growing MT-4 cells were seeded at an initial density of 1 × 10^5 cells/ml in 96-well plates in RPMI-1640 medium, supplemented with 10 % fetal bovine serum (FBS), 100 units/ml penicillin G, and 100 μg/ml streptomycin. Cell cultures were then incubated at 37 °C in a humidified 5 % CO2 atmosphere in the absence or presence of serial dilutions of test compounds. Cell viability was determined after 96 h at 37 °C by the 3-(4,5-dimethylthiazol-2-yl)-2,5-diphenyl-tetrazolium bromide (MTT) method (Pauwels et al., [1988])."}, "[2]": {"system": "HIV-1IIIB", "experiment": "Anti-HIV-1 assay: inhibition of virus-induced cytopathogenicity in MT-4 cells (MTT method)", "assay_type": "cell-based, human immunodeficiency virus type-1", "settings": "MT-4 cells infected with HIV-1IIIB, m.o.i. 0.01, 4-day incubation, read-out: EC50: compound concentration required to achieve 50 % protection of MT-4 cells from the HIV-1-induced cytopathogenicity", "description": "Cell line and viruses were purchased from the American Type Culture Collection (ATCC). The absence of mycoplasma contamination was checked periodically by the Hoechst staining method. Cell line supporting the multiplication of human immunodeficiency virus type-1 (HIV-1) was the CD4+ human T-cells containing an integrated HTLV-1 genome (MT-4).\nCompound’s activity against HIV-1 was based on inhibition of virus-induced cytopathogenicity in MT-4 cell acutely infected with a multiplicity of infection (m.o.i.) of 0.01. In brief, 50 μl of RPMI containing 1 × 10^4 MT-4 cells were added to each well of flat-bottom microtitre trays, containing 50 μl of RPMI with or without serial dilutions of test compounds. Then, 20 μl of a HIV-1 suspension containing 100 CCID50 was added. After a 4-day incubation at 37 °C, cell viability was determined by the MTT method (Pauwels et al., [1988])."}, "[3]": {"experiment": "Cytotoxicity assay in MT-4 cells (MTT method)", "assay_type": "cell-based, human", "settings": "human; mock-infected MT-4 cells, 96 h, MTT method; read-out: CC50: compound concentration required to reduce the viability of mock-infected MT-4 cells by 50 %", "description": "as §1"}, "[4]": {"target": "T1, 5-HT1A receptor (Rattus norvegicus, UniProt P19327)", "T1 construct": "Ligand studies with native 5-HT1A receptor; from tissue", "T1 sequence (P19327 1-422)": "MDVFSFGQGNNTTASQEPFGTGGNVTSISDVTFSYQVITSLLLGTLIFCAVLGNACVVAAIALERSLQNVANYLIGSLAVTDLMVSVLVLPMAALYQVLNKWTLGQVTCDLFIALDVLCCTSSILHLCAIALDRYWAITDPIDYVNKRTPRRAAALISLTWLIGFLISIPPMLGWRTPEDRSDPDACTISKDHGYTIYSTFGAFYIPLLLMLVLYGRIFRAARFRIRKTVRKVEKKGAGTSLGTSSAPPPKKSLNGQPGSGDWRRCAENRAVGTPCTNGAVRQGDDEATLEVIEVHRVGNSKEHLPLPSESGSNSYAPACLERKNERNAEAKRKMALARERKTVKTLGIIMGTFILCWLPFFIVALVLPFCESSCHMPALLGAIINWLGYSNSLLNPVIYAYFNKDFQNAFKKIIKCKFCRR", "experiment": "In vitro ligand binding assay with native 5-HT1A receptor", "description": "Ligand studies with native 5-HT1A receptor were conducted according to the methods previously described (Lewgowd et al., [2011])."}, "[5]": {"settings": "Human immunodeficiency virus 1, MT4, 96 h"}}, "note": "pEC50: −log10 of the molar value. Where two headings read alike, the source gives them in different places.", "data": [{"molecule": "O=c1cccc2cc3c(-c4ccccc4)c4c(=O)n(CCCCBr)c(=O)c4c(-c4ccccc4)c3c1-2", "values": [{"measurement": "melting point", "result": "241 to 242", "unit": "°C"}]}, {"molecule": "4,10-Diphenyl-2-{4-[4-(pyridin-2-yl)piperazin-1-yl]butyl}-1H,2H,3H,5H-indeno[1,2-f]isoindole-1,3,5-trione [Compound 13]", "values": [{"measurement": "CC50", "setting": "[1]", "result": "> 100", "unit": "µM"}, {"measurement": "pEC50", "setting": "[2]", "result": "< 4.00"}]}, {"molecule": "O=C1Nc2ccc(Cl)cc2[C@@](C#CC2CC2)(C(F)(F)F)O1", "note": "[Efavirenz, reference compound]", "values": [{"measurement": "CC50 at 96 h", "setting": "[3]", "result": 45, "unit": "µM"}, {"measurement": "pEC50", "setting": "[2]; [5]", "result": 8.70}]}, {"molecule": "O=c1[nH]c(=O)c2c(-c3ccccc3)c3c(c(-c4ccccc4)c12)c(=O)c1ccccc13", "note": "[Compound 10, 4,10-diphenyl-1H,2H,3H,5H-indeno[1,2-f]isoindole-1,3,5-trione]", "values": [{"measurement": "CC50", "setting": "[1]", "result": 9, "unit": "µM"}, {"measurement": "pEC50", "setting": "[2]", "result": "< 5.05"}]}, {"molecule": "2-{4-[4-(2-Fluorophenyl)piperazin-1-yl]butyl}-4,10-diphenyl-1H,2H,3H,5H-indeno[1,2-f]isoindole-1,3,5-trione [Compound 15]", "values": [{"measurement": "CC50", "setting": "[1]", "result": "> 100", "unit": "µM"}, {"measurement": "pEC50", "setting": "[2]", "result": "< 4.00"}]}, {"molecule": "4,10-Diphenyl-2-[4-(4-{2-[2-(trifluoromethyl)phenyl]ethyl}piperazin-1-yl)butyl]-1H,2H,3H,5H-indeno[1,2-f]isoindole-1,3,5-trione [Compound 14]", "values": [{"measurement": "CC50", "setting": "[1]", "result": 9, "unit": "µM"}, {"measurement": "pEC50", "setting": "[2]", "result": "< 5.05"}]}, {"molecule": "O=c1c2ccccc2c2c(-c3ccccc3)c3c(=O)n(CCCCN4CCN(c5ccc(Cl)cc5)CC4)c(=O)c3c(-c3ccccc3)c12", "note": "[Compound 17, 2-{4-[4-(4-Chlorophenyl)piperazin-1-yl]butyl}-4,10-diphenyl-1H,2H,3H,5H-indeno[1,2-f]isoindole-1,3,5-trione]", "values": [{"measurement": "CC50", "setting": "[1]", "result": "> 100", "unit": "µM"}, {"measurement": "pEC50", "setting": "[2]", "result": "< 4.00"}]}, {"molecule": "O=C1C2C(C(=O)N1CCCCN1CCN(c3ccccc3F)CC1)C1(c3ccccc3)C(=O)C2(c2ccccc2)c2c1c1ccccc1c1ccccc21", "note": "(stereo not drawn) [Compound 7, 19-(4-(4-(2-Fluorophenyl)piperazin-1-yl)butyl)-1,16-diphenyl-19-azahexacyclo-[14.5.1.0^2,15.0^3,8.0^9,14.0^17,21]docosa-2,3,5,7,8,9,11,13,14-nonaene-18,20,22-trione]", "values": [{"measurement": "CC50 at 96 h", "setting": "[3]", "result": "> 100", "unit": "µM"}, {"measurement": "pEC50", "setting": "[2]; [5]", "result": "< 4.00"}, {"measurement": "melting point", "result": "205 to 207", "unit": "°C"}]}, {"molecule": "2-{4-[4-(4-Fluorophenyl)piperazin-1-yl]butyl}-4,10-diphenyl-1H,2H,3H,5H-indeno[1,2-f]isoindole-1,3,5-trione [Compound 16]", "values": [{"measurement": "CC50", "setting": "[1]", "result": "> 100", "unit": "µM"}, {"measurement": "pEC50", "setting": "[2]", "result": "< 4.00"}]}, {"molecule": "CC(=O)c1ccc(N2CCN(CCCCN3C(=O)C4C(C3=O)C3(c5ccccc5)C(=O)C4(c4ccccc4)c4c3c3ccccc3c3ccccc43)CC2)cc1", "note": "(stereo not drawn) [Compound 8, 19-(4-(4-(4-Acetylphenyl)piperazin-1-yl)butyl)-1,16-diphenyl-19-azahexacyclo-[14.5.1.0^2,15.0^3,8.0^9,14.0^17,21]docosa-2,3,5,7,8,9,11,13,14-nonaene-18,20,22-trione]", "values": [{"measurement": "CC50 at 96 h", "setting": "[3]", "result": "> 100", "unit": "µM"}, {"measurement": "pEC50", "setting": "[2]; [5]", "result": "< 4.00"}, {"measurement": "melting point", "result": "202 to 204", "unit": "°C"}]}, {"molecule": "4,10-Diphenyl-2-[4-(4-phenylpiperazin-1-yl)butyl]-1H,2H,3H,5H-indeno[1,2-f]isoindole-1,3,5-trione [Compound 12]", "values": [{"measurement": "CC50", "setting": "[1]", "result": "> 100", "unit": "µM"}, {"measurement": "pEC50", "setting": "[2]", "result": "< 4.00"}]}, {"molecule": "O=c1c2ccccc2c2c(-c3ccccc3)c3c(=O)n(CCCCN4CCN(c5ccccc5Cl)CC4)c(=O)c3c(-c3ccccc3)c12", "note": "[Compound 18, 2-{4-[4-(2-Chlorophenyl)piperazin-1-yl]butyl}-4,10-diphenyl-1H,2H,3H,5H-indeno[1,2-f]isoindole-1,3,5-trione]", "values": [{"measurement": "CC50", "setting": "[1]", "result": "> 100", "unit": "µM"}, {"measurement": "pEC50", "setting": "[2]", "result": "< 4.00"}]}, {"molecule": "COc1ccccc1N1CCN(CCCCn2c(=O)c3c(-c4ccccc4)c4c(=O)c5ccccc5c4c(-c4ccccc4)c3c2=O)CC1", "note": "[Compound 19, 2-{4-[4-(2-metoxyphenyl)piperazin-1-yl]butyl}-4,10-diphenyl-1H,2H,3H,5H-indeno[1,2-f]isoindole-1,3,5-trione]", "values": [{"measurement": "CC50 at 96 h", "setting": "[3]", "result": "> 100", "unit": "µM"}, {"measurement": "pEC50", "setting": "[2]; [5]", "result": "< 4.00"}, {"measurement": "melting point", "result": "245 to 246", "unit": "°C"}]}, {"molecule": "O=C1C2C(C(=O)N1CCCCN1CCN(c3ccc(Cl)cc3)CC1)C1(c3ccccc3)C(=O)C2(c2ccccc2)c2c1c1ccccc1c1ccccc21", "note": "(stereo not drawn) [Compound 6, 19-(4-(4-(4-Chlorophenyl)piperazin-1-yl)butyl)-1,16-diphenyl-19-azahexacyclo-[14.5.1.0^2,15.0^3,8.0^9,14.0^17,21]docosa-2,3,5,7,8,9,11,13,14-nonaene-18,20,22-trione]", "values": [{"measurement": "CC50 at 96 h", "setting": "[3]", "result": "> 100", "unit": "µM"}, {"measurement": "pEC50", "setting": "[2]; [5]", "result": "< 4.00"}, {"measurement": "melting point", "result": "220 to 221", "unit": "°C"}]}, {"molecule": "O=C1C2C(C(=O)N1CCCCN1CCN(c3ccccn3)CC1)C1(c3ccccc3)C(=O)C2(c2ccccc2)c2c1c1ccccc1c1ccccc21", "note": "(stereo not drawn) [Compound 3, 1,16-Diphenyl-19-(4-(4-pyridin-2-ylpiperazin-1-yl)butyl)-19-azahexacyclo-[14.5.1.0^2,15.0^3,8.0^9,14.0^17,21]docosa-2,3,5,7,8,9,11,13,14-nonaene-18,20,22-trione]", "values": [{"measurement": "CC50 at 96 h", "setting": "[3]", "result": 90, "unit": "µM"}, {"measurement": "pEC50", "setting": "[2]; [5]", "result": "< 4.05"}, {"measurement": "melting point", "result": "200 to 203", "unit": "°C"}]}, {"molecule": "COc1ccccc1N1CCN(CCCCN2C(=O)C3C(C2=O)C2(c4ccccc4)C(=O)C3(c3ccccc3)c3c2c2ccccc2c2ccccc32)CC1", "note": "(stereo not drawn) [Compound 4, 19-(4-(4-(2-(Methyloxy)phenyl)piperazin-1-yl)butyl)-1,16-diphenyl-19-azahexa-cyclo[14.5.1.0^2,15.0^3,8.0^9,14.0^17,21]docosa-2,3,5,7,8,9,11,13,14-nonaene-18,20,22-trione]", "values": [{"measurement": "melting point", "result": "197 to 200", "unit": "°C"}, {"measurement": "activity to the 5-HT1A receptor", "setting": "[4]", "result": "moderate activity"}]}]}
